Data: PubChem BioAssay (NCI)
“And” between values parts separate entries of the source, which are not always exact repeats. Equal entries are not always repeated.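 These data come from cells grown in 96-well plates and exposed to compound for 48 hours at five concentrations. GI50 is the concentration that inhibits growth by half. TGI denotes the concentration required for complete inhibition of growth.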

Legend:
Assay in all cases: NCI-60 cell line screen, 48 h
NCI/ADR-RES ovarian = tested on: NCI/ADR-RES ovarian
SK-MEL-2 melanoma = tested on: SK-MEL-2 melanoma
SF-295 CNS = tested on: SF-295 CNS
IGROV1 ovarian = tested on: IGROV1 ovarian
MCF7 breast = tested on: MCF7 breast
COLO 205 colon = tested on: COLO 205 colon
RPMI-8226 leukemia = tested on: RPMI-8226 leukemia
HT29 colon = tested on: HT29 colon
OVCAR-4 ovarian = tested on: OVCAR-4 ovarian
RXF 393 renal = tested on: RXF 393 renal
PC-3 prostate = tested on: PC-3 prostate
HCT-116 colon = tested on: HCT-116 colon
M14 melanoma = tested on: M14 melanoma
MDA-MB-231 breast = tested on: MDA-MB-231 breast
SN12C renal = tested on: SN12C renal
TK-10 renal = tested on: TK-10 renal
HOP-92 NSCLC = tested on: HOP-92 NSCLC
KM12 colon = tested on: KM12 colon
SK-MEL-5 melanoma = tested on: SK-MEL-5 melanoma
SK-MEL-28 melanoma = tested on: SK-MEL-28 melanoma
HOP-62 NSCLC = tested on: HOP-62 NSCLC
U251 CNS = tested on: U251 CNS
OVCAR-8 ovarian = tested on: OVCAR-8 ovarian
NCI-H226 lung = tested on: NCI-H226 lung
HL-60(TB) leukemia = tested on: HL-60(TB) leukemia
OVCAR-3 ovarian = tested on: OVCAR-3 ovarian
786-0 renal = tested on: 786-0 renal
UACC-257 melanoma = tested on: UACC-257 melanoma
SR leukemia = tested on: SR leukemia
SF-268 CNS = tested on: SF-268 CNS
BT-549 breast = tested on: BT-549 breast
A498 renal = tested on: A498 renal
NCI-H460 lung = tested on: NCI-H460 lung
EKVX NSCLC = tested on: EKVX NSCLC
LOX IMVI melanoma = tested on: LOX IMVI melanoma
MDA-MB-435 = tested on: MDA-MB-435
SF-539 CNS = tested on: SF-539 CNS
CCRF-CEM leukemia = tested on: CCRF-CEM leukemia
K-562 leukemia = tested on: K-562 leukemia
SK-OV-3 ovarian = tested on: SK-OV-3 ovarian
HS 578T breast = tested on: HS 578T breast
A549 NSCLC = tested on: A549 NSCLC
MOLT-4 leukemia = tested on: MOLT-4 leukemia
HCC-2998 colon = tested on: HCC-2998 colon
MDA-N = tested on: MDA-N
UACC-62 melanoma = tested on: UACC-62 melanoma
HCT-15 colon = tested on: HCT-15 colon
UO-31 renal = tested on: UO-31 renal
MALME-3M melanoma = tested on: MALME-3M melanoma
OVCAR-5 ovarian = tested on: OVCAR-5 ovarian
ACHN renal = tested on: ACHN renal
DU-145 prostate = tested on: DU-145 prostate
T-47D breast = tested on: T-47D breast
SNB-19 CNS = tested on: SNB-19 CNS
CAKI-1 renal = tested on: CAKI-1 renal
NCI-H23 lung = tested on: NCI-H23 lung
SNB-75 CNS = tested on: SNB-75 CNS
SW-620 colon = tested on: SW-620 colon
NCI-H522 lung = tested on: NCI-H522 lung

Cc1cc(O)c2c(c1)C(=O)C=CC2=O
TGI (NCI/ADR-RES ovarian): 37 µM and 47.2 µM | TGI (SK-MEL-2 melanoma): 36.8 µM and 44.3 µM | TGI (SF-295 CNS): 32.7 µM and 39 µM | TGI (IGROV1 ovarian): 27.4 µM and 24.1 µM | TGI (MCF7 breast): 11.3 µM and 21.8 µM | TGI (COLO 205 colon): 7.97 µM and > 21.2 µM | GI50 (RPMI-8226 leukemia): 3.29 µM and 0.39 µM | TGI (RPMI-8226 leukemia): 17.9 µM and 3.44 µM | TGI (HT29 colon): 12.3 µM and 21.3 µM | GI50 (OVCAR-4 ovarian): 14.5 µM and 6.75 µM | TGI (OVCAR-4 ovarian): 28.8 µM and 19.5 µM | TGI (RXF 393 renal): 9.57 µM and 9.17 µM | TGI (PC-3 prostate): 46.3 µM and 25.5 µM | TGI (HCT-116 colon): 10.2 µM and > 20.2 µM | TGI (M14 melanoma): 25.7 µM and 21.7 µM | TGI (MDA-MB-231 breast): 25.3 µM and 18.6 µM | TGI (SN12C renal): 21.9 µM and 28.6 µM | GI50 (TK-10 renal): 5.92 µM and 12.7 µM | TGI (TK-10 renal): 15.6 µM and 26.9 µM | GI50 (HOP-92 NSCLC): 2.33 µM and 2.51 µM | TGI (HOP-92 NSCLC): 5.15 µM and 7.69 µM | TGI (KM12 colon): 32.9 µM and 32.5 µM | GI50 (SK-MEL-5 melanoma): 7.53 µM and 2.27 µM | TGI (SK-MEL-5 melanoma): 22.4 µM and 6.77 µM | GI50 (SK-MEL-28 melanoma): 20.4 µM and 8.89 µM | TGI (SK-MEL-28 melanoma): 35.5 µM and 23.6 µM | TGI (HOP-62 NSCLC): 44.7 µM and 34.2 µM | GI50 (U251 CNS): 14.2 µM and 5.29 µM | TGI (U251 CNS): 33.7 µM and 23.4 µM | GI50 (OVCAR-8 ovarian): 14.1 µM and 4.75 µM | TGI (OVCAR-8 ovarian): 43.9 µM and 14.8 µM | TGI (NCI-H226 lung): 42.4 µM and 39.2 µM | GI50 (HL-60(TB) leukemia): 0.0336 µM and 0.31 µM | TGI (HL-60(TB) leukemia): 0.202 µM and 1.89 µM | TGI (OVCAR-3 ovarian): 10 µM and 10.2 µM | GI50 (786-0 renal): 5.8 µM and 2.59 µM | TGI (786-0 renal): 12.9 µM and > 21.6 µM | GI50 (UACC-257 melanoma): 9.95 µM | TGI (UACC-257 melanoma): 11.3 µM and 27.8 µM | GI50 (SR leukemia): 1.14 µM and 0.33 µM | TGI (SF-268 CNS): 48.3 µM and 31.5 µM | GI50 (BT-549 breast): 15.5 µM and 6.9 µM | TGI (BT-549 breast): 30.3 µM and 21 µM | TGI (A498 renal): 40.7 µM and 75.2 µM | TGI (NCI-H460 lung): 45.5 µM and 31.1 µM | GI50 (EKVX NSCLC): 7.46 µM and 3.6 µM | TGI (EKVX NSCLC): 20.6 µM and 15.2 µM | TGI (LOX IMVI melanoma): 12.6 µM and > 100 µM | GI50 (MDA-MB-435): 4.8 µM and 1.93 µM | TGI (MDA-MB-435): 11.7 µM and 4.25 µM | TGI (SF-539 CNS): 31.4 µM and 30.8 µM | TGI (CCRF-CEM leukemia): 0.564 µM and 1.19 µM | GI50 (K-562 leukemia): 0.322 µM and 1.25 µM | TGI (SK-OV-3 ovarian): > 84.2 µM | TGI (HS 578T breast): 54.6 µM and 64.3 µM | TGI (A549 NSCLC): 58 µM and 42.9 µM | TGI (MOLT-4 leukemia): 1.71 µM and 1.61 µM | TGI (HCC-2998 colon): 25.4 µM and 30 µM | TGI (MDA-N): 9.13 µM and 4.68 µM | TGI (UACC-62 melanoma): 18.9 µM and 25.3 µM | GI50 (HCT-15 colon): 7.78 µM and 3.53 µM | TGI (HCT-15 colon): 24.9 µM and 9.83 µM | TGI (UO-31 renal): 11.4 µM and 16.2 µM | GI50 (MALME-3M melanoma): 10.2 µM and 1.86 µM | TGI (MALME-3M melanoma): 23.2 µM and 8.39 µM | TGI (OVCAR-5 ovarian): 43.1 µM and 34.4 µM | GI50 (ACHN renal): 4.43 µM and 4 µM | TGI (ACHN renal): 8.57 µM and 15.6 µM | TGI (DU-145 prostate): 30.8 µM and 46.7 µM | TGI (T-47D breast): 7.47 µM and 16.4 µM | TGI (SNB-19 CNS): 46.7 µM and 31.2 µM | GI50 (CAKI-1 renal): 5.57 µM and 2.21 µM | TGI (CAKI-1 renal): 13 µM and 6.47 µM | TGI (NCI-H23 lung): 27.9 µM and 23 µM | TGI (SNB-75 CNS): 34 µM and 30 µM | GI50 (SW-620 colon): 7.3 µM and 2.67 µM | TGI (SW-620 colon): 23.9 µM and 22.4 µM | GI50 (NCI-H522 lung): 3.8 µM and 1.46 µM | TGI (NCI-H522 lung): 8.05 µM and 3.06 µM
